System: HaCaT cells
Experiment: Concentrations of inflammatory mediators produced by HaCaT cells stimulated with TNFα and IFNγ in presence/absence of JAK inhibitors (ProCarta)
Assay type: cell-based, human
Method: After 48 hours, cell culture media was removed from 24 well plates and replaced with 250 uL of media containing serial diluted drug, then incubated for 15 minutes at 37° C./5% CO2. […] The final concentration of Recombinant Human Interferon gamma and Recombinant Human Tumor Necrosis Factor alpha was 25 ng/mL of each cytokine. Cytokine stimulation added to wells containing drug brought the final concentrations for each drug treatment to 25 nM, 50 nM, 100 nM, and 200 nM. Treated plates were mixed by gentle agitation for 30 seconds then incubated for 24 hours at 37° C./5% CO2. At the end of the 24 hour incubation media was immediately removed from each plate.
Media was incubated with antibody conjugated beads designed to bind to the epitopes of specific target proteins and identify the bound protein through the bead's distinctive spectral pattern. Biotinylated detection antibodies, designed to bind to different epitopes of the same target proteins, and Streptavidin-PE are added to assay plates to quantify the amount of the target proteins. Assay plates were read on the Luminex 200 and data were expressed as Net Median Fluorescence Intensity. […] The concentration of each protein was extrapolated from the antigen standard curve and concentrations were expressed as pg/mL (Table 15).

[1] = TNFα 25 ng/mL + IFNγ 25 ng/mL, drug 100 nM
[2] = TNFα 25 ng/mL + IFNγ 25 ng/mL, drug 200 nM

N#CCC1(n2cc(-c3ncnc4[nH]ccc34)cn2)CN(C2CCN(C(=O)c3ccnc(C(F)(F)F)c3F)CC2)C1 [Cpc B]
IL15 concentration [1]: 2.58 ± 0.68 pg/mL | IL17A concentration [1]: 4.84 ± 0.34 pg/mL | IL18 concentration [1]: 156.06 ± 3.24 pg/mL | IL21 concentration [1]: 2.36 ± 0.35 pg/mL | IL22 concentration [1]: 8.03 ± 0.87 pg/mL | IL23 concentration [1]: 6.44 ± 0.69 pg/mL | IL27 concentration [1]: 5.36 ± 0.73 pg/mL | IL31 concentration [1]: 3.35 ± 0.44 pg/mL | IP-10/CXCL10 concentration [1]: 4050.7 ± 471.31 pg/mL | LIF concentration [1]: 70.3 ± 3.65 pg/mL | MCP1 concentration [1]: 15200 ± 0 pg/mL | MIP1 alpha concentration [1]: 91.52 ± 5.05 pg/mL | MIP1 beta concentration [1]: 323.13 ± 6.82 pg/mL | PDGF-BB concentration [1]: 5.4 ± 0.16 pg/mL | PIGF-1 concentration [1]: 54.67 ± 3.27 pg/mL | RANTES concentration [1]: 194.21 ± 12.67 pg/mL | SCF concentration [1]: 4.26 ± 0.17 pg/mL | SDF-1 alpha concentration [1]: 3471.01 ± 111.77 pg/mL | TNF alpha concentration [1]: 11722.68 ± 1259.67 pg/mL | TNF beta concentration [1]: 4 ± 0.51 pg/mL | VEGF-A concentration [1]: 1262.01 ± 46.28 pg/mL | VEGF-D concentration [1]: 8.71 ± 0.65 pg/mL | bNGF concentration [1]: 7.04 ± 0.59 pg/mL | BDNF concentration [2]: 4.1 ± 0.24 pg/mL | EGF concentration [2]: 1.52 ± 0.1 pg/mL | Eotaxin concentration [2]: 10.05 ± 0.19 pg/mL | FGF-2 concentration [2]: 21.39 ± 1.61 pg/mL | GM-CSF concentration [2]: 134.13 ± 3.74 pg/mL | GRO alpha concentration [2]: 563.61 ± 42.17 pg/mL | HGF concentration [2]: 13.5 ± 0.57 pg/mL | IFN alpha concentration [2]: 0.26 ± 0 pg/mL | IFN gamma concentration [2]: 25272.53 ± 3796.83 pg/mL | IL1RA concentration [2]: 5710.44 ± 269.38 pg/mL | IL1 alpha concentration [2]: 6.16 ± 0.35 pg/mL | IL1 beta concentration [2]: 8.43 ± 0.29 pg/mL | IL2 concentration [2]: 31.86 ± 1.25 pg/mL | IL4 concentration [2]: 6.42 ± 1.24 pg/mL | IL5 concentration [2]: 25.88 ± 1.37 pg/mL | IL6 concentration [2]: 568.73 ± 24.74 pg/mL | IL7 concentration [2]: 2.09 ± 0.14 pg/mL | IL8 concentration [2]: 3023.88 ± 193.36 pg/mL | IL9 concentration [2]: 3.28 ± 0.35 pg/mL | IL10 concentration [2]: 0.84 ± 0.06 pg/mL | IL12p70 concentration [2]: 1.87 ± 0.16 pg/mL | IL13 concentration [2]: 2.52 ± 0.3 pg/mL | IL15 concentration [2]: 2.57 ± 0.54 pg/mL | IL17A concentration [2]: 4.43 ± 0.26 pg/mL | IL18 concentration [2]: 159.36 ± 4.73 pg/mL | IL21 concentration [2]: 2.47 ± 0.28 pg/mL | IL22 concentration [2]: 7.74 ± 0.78 pg/mL | IL23 concentration [2]: 7.41 ± 0.5 pg/mL | IL27 concentration [2]: 8.04 ± 1.65 pg/mL | IL31 concentration [2]: 3.93 ± 0.4 pg/mL | IP-10/CXCL10 concentration [2]: 4071.78 ± 411.22 pg/mL | LIF concentration [2]: 71.92 ± 2.82 pg/mL | MCP1 concentration [2]: 17302.89 ± 2102.89 pg/mL | MIP1 alpha concentration [2]: 83.1 ± 2.77 pg/mL | MIP1 beta concentration [2]: 318.83 ± 8.71 pg/mL | PDGF-BB concentration [2]: 5.28 ± 0.15 pg/mL | PIGF-1 concentration [2]: 54.61 ± 2.69 pg/mL | RANTES concentration [2]: 183.18 ± 13.92 pg/mL | SCF concentration [2]: 4.2 ± 0.17 pg/mL | SDF-1 alpha concentration [2]: 3481.04 ± 134.24 pg/mL | TNF alpha concentration [2]: 11233.91 ± 945.2 pg/mL | TNF beta concentration [2]: 4.42 ± 0.45 pg/mL | VEGF-A concentration [2]: 1232.36 ± 49.33 pg/mL | VEGF-D concentration [2]: 9.12 ± 0.78 pg/mL | bNGF concentration [2]: 6.52 ± 0.69 pg/mL | BDNF concentration (no stimulation, drug 200 nM): 5.35 ± 0.34 pg/mL | EGF concentration (no stimulation, drug 200 nM): 1.06 ± 0.14 pg/mL | Eotaxin concentration (no stimulation, drug 200 nM): 2.22 ± 0.09 pg/mL | FGF-2 concentration (no stimulation, drug 200 nM): 8.5 ± 0.95 pg/mL | GM-CSF concentration (no stimulation, drug 200 nM): 8.69 ± 1.22 pg/mL | GRO alpha concentration (no stimulation, drug 200 nM): 228.97 ± 14.45 pg/mL | HGF concentration (no stimulation, drug 200 nM): 4.44 ± 0.32 pg/mL | IFN alpha concentration (no stimulation, drug 200 nM): 0.23 ± 0.02 pg/mL | IFN gamma concentration (no stimulation, drug 200 nM): 3.39 ± 0.69 pg/mL | IL1RA concentration (no stimulation, drug 200 nM): 502.58 ± 57.22 pg/mL | IL1 alpha concentration (no stimulation, drug 200 nM): 0.29 ± 0.03 pg/mL | IL1 beta concentration (no stimulation, drug 200 nM): 0.98 ± 0.14 pg/mL | IL2 concentration (no stimulation, drug 200 nM): 3.32 ± 0.6 pg/mL | IL4 concentration (no stimulation, drug 200 nM): 4.61 ± 0.7 pg/mL | IL5 concentration (no stimulation, drug 200 nM): 2.84 ± 0.38 pg/mL | IL6 concentration (no stimulation, drug 200 nM): 26.86 ± 2.62 pg/mL | IL7 concentration (no stimulation, drug 200 nM): 3.03 ± 0.2 pg/mL | IL8 concentration (no stimulation, drug 200 nM): 261.92 ± 12.12 pg/mL | IL9 concentration (no stimulation, drug 200 nM): 3.91 ± 0.48 pg/mL | IL10 concentration (no stimulation, drug 200 nM): 0.32 ± 0.07 pg/mL | IL12p70 concentration (no stimulation, drug 200 nM): 1.55 ± 0.29 pg/mL | IL13 concentration (no stimulation, drug 200 nM): 1.14 ± 0.13 pg/mL | IL15 concentration (no stimulation, drug 200 nM): 2.22 ± 0.42 pg/mL | IL17A concentration (no stimulation, drug 200 nM): 1.2 ± 0.29 pg/mL | IL18 concentration (no stimulation, drug 200 nM): 6.04 ± 0.5 pg/mL | IL21 concentration (no stimulation, drug 200 nM): 2.43 ± 0.31 pg/mL | IL22 concentration (no stimulation, drug 200 nM): 8.13 ± 0.77 pg/mL | IL23 concentration (no stimulation, drug 200 nM): 5.8 ± 1.11 pg/mL | IL27 concentration (no stimulation, drug 200 nM): 7.57 ± 2.22 pg/mL | IL31 concentration (no stimulation, drug 200 nM): 3.01 ± 0.44 pg/mL | IP-10/CXCL10 concentration (no stimulation, drug 200 nM): 19.75 ± 0.42 pg/mL | LIF concentration (no stimulation, drug 200 nM): 23.25 ± 0.99 pg/mL | MCP1 concentration (no stimulation, drug 200 nM): 1125.31 ± 55.12 pg/mL | MIP1 alpha concentration (no stimulation, drug 200 nM): 2.63 ± 0.35 pg/mL | MIP1 beta concentration (no stimulation, drug 200 nM): 113.94 ± 3.76 pg/mL | PDGF-BB concentration (no stimulation, drug 200 nM): 2.15 ± 0.13 pg/mL | PIGF-1 concentration (no stimulation, drug 200 nM): 20.17 ± 1.26 pg/mL | RANTES concentration (no stimulation, drug 200 nM): 8.42 ± 0.51 pg/mL | SCF concentration (no stimulation, drug 200 nM): 1.93 ± 0.13 pg/mL | SDF-1 alpha concentration (no stimulation, drug 200 nM): 1003.25 ± 40.97 pg/mL | TNF alpha concentration (no stimulation, drug 200 nM): 2.4 ± 0.71 pg/mL | TNF beta concentration (no stimulation, drug 200 nM): 4.7 ± 0.28 pg/mL | VEGF-A concentration (no stimulation, drug 200 nM): 554.18 ± 29.76 pg/mL | VEGF-D concentration (no stimulation, drug 200 nM): 3.19 ± 0.57 pg/mL | bNGF concentration (no stimulation, drug 200 nM): 3.84 ± 0.71 pg/mL
